Data reported in patent publication US20130129732A1, “METHOD FOR […]” (LANXESS Deutschland GmbH, priority 2009, published 2013).

Tests used:
Assay type in all cases: cell-based
Saccharomyces cerivisiae = test: Microbial reduction (MLC) in clear apple juice seeded with Saccharomyces cerivisiae, preservative with PEF; settings: 10^5 CFU/ml, PEF 5 kV/cm, 3-6 J/ml, after 24 h
Description: (§1) In the examples hereinafter, the Elcrack® apparatus of the Deutsche Institute für Lebensmitteltechnik e. V. [German Institute for food technology] was used for the PEF treatment.
(§2) The treatment proceeded at differing field strengths and energy densities, wherein the pulse width was 20 μs and the pulse frequency 400 Hz.
(§3) In the examples hereinafter, in each case clear apple juice was admixed with stirring by means of a propeller agitator with a microbial or spore suspension, then after approximately 3 minutes, optionally further antimicrobially active substances, and thereafter after approximately 2 minutes, DMDC. The microbial or spore suspension was added in such a manner that a defined amount of cells, generally 10^3 to 10^5 CFU/ml were present in the apple juice.
(§4) The apple juice was then treated by PEF (using the above-described Elcrack® apparatus). As further microbially active substances, sodium benzoate or potassium sorbate were used.
(§5) As a measure for microbial reduction, the median logarithmic cell count reduction (MLC) was determined. In this case the logarithm of the surviving cell count is subtracted from the logarithm of the initial cell count. The higher the MLC value, the higher the microbial reduction and the better the activity is.
(§6) A: Bacillilus subtilis DSM 347 (ATCC 6633) B: Penicillium roqueforti DSM 1079 (ATCC 34908) C: Lactobacillus frigidus DSM 6235 D: Saccharomyces […] DSM 70449 (ATCC 18824)

Bacillus subtilis = test: Microbial reduction (MLC) in clear apple juice seeded with Bacillus subtilis, preservative with or without PEF; settings: 10^3 CFU/ml
Description: as §1, §2, §3, §4, §5, §6

Lactobacillus frigidus = test: Microbial reduction (MLC) in clear apple juice seeded with Lactobacillus frigidus, preservative with or without PEF; settings: 10^5 CFU/ml, after 1 week
Description: as §1, §2, §3, §4, §5, §6

Penicillium roqueforti = test: Microbial reduction (MLC) in clear apple juice seeded with Penicillium roqueforti, preservative with or without PEF; settings: 10^5 CFU/ml
Description: as §1, §2, §3, §4, §5, §6

[1] = PEF 35 kV/cm, 110-116 J/ml, after 24 h
[2] = PEF 30 kV/cm, 94-104 J/ml, after 24 h

Compound: O=C([O-])c1ccccc1.[Na+] [VD2, sodium benzoate]
- MLC (median logarithmic cell count reduction) (Saccharomyces cerivisiae): none; heavy

Compound: O=C([O-])c1ccccc1.[Na+] [VA1, sodium benzoate]
- MLC (median logarithmic cell count reduction) (Bacillus subtilis; [1]): 2.0/24 h

Compound: COC(=O)OC(=O)OC [Example A5, dimethyl dicarbonate]
- MLC (median logarithmic cell count reduction) (Bacillus subtilis; PEF 35 kV/cm, 111 J/ml, after 1 week): 3.0/1 week

Compound: O=C([O-])c1ccccc1.[Na+] [VC2, sodium benzoate]
- MLC (median logarithmic cell count reduction) (Lactobacillus frigidus; PEF 30 kV/cm, 88-93 J/ml): 2.8/1 week

Compound: C/C=C/C=C/C(=O)[O-].[K+] [VD3, potassium sorbate]
- MLC (median logarithmic cell count reduction) (Saccharomyces cerivisiae): none; heavy

Compound: C/C=C/C=C/C(=O)[O-].[K+] [VA2, potassium sorbate]
- MLC (median logarithmic cell count reduction) (Bacillus subtilis; [1]): 0.5/24 h

Compound: COC(=O)OC(=O)OC [VC1, dimethyl dicarbonate]
- MLC (median logarithmic cell count reduction) (Lactobacillus frigidus; no PEF, 21° C.): 2.3/1 week

Compound: COC(=O)OC(=O)OC [Example A1, dimethyl dicarbonate]
- MLC (median logarithmic cell count reduction) (Bacillus subtilis; [1]): 2.2/24 h

Compound: COC(=O)OC(=O)OC [Example B5, dimethyl dicarbonate]
- MLC (median logarithmic cell count reduction) (Penicillium roqueforti; PEF 30 kV/cm, 94-104 J/ml, after 4 weeks): at least 7/4

Compound: O=C([O-])c1ccccc1.[Na+] [VB3, sodium benzoate]
- MLC (median logarithmic cell count reduction) (Penicillium roqueforti; [2]): none; heavy

Compound: COC(=O)OC(=O)OC [Example C1, dimethyl dicarbonate]
- MLC (median logarithmic cell count reduction) (Lactobacillus frigidus; PEF 30 kV/cm, 88-93 J/ml): 3.6/1 week

Compound: C/C=C/C=C/C(=O)[O-].[K+] [VC3, potassium sorbate]
- MLC (median logarithmic cell count reduction) (Lactobacillus frigidus; PEF 30 kV/cm, 88-93 J/ml): 3.0/1 week

Compound: COC(=O)OC(=O)OC [VB1, dimethyl dicarbonate]
- MLC (median logarithmic cell count reduction) (Penicillium roqueforti; no PEF, 21° C., after 24 h): 6.4/24 h

Compound: COC(=O)OC(=O)OC [Example A4, dimethyl dicarbonate]
- MLC (median logarithmic cell count reduction) (Bacillus subtilis; PEF 15 kV/cm, 23 J/ml, after 24 h): 1.4/24 h

Compound: C/C=C/C=C/C(=O)[O-].[K+] [VB4, potassium sorbate]
- MLC (median logarithmic cell count reduction) (Penicillium roqueforti; [2]): none; heavy

Compound: COC(=O)OC(=O)OC [Example D1, dimethyl dicarbonate]
- MLC (median logarithmic cell count reduction) (Saccharomyces cerivisiae): min 7/24 h
